In paper PMC3082957 (ACS chemical neuroscience, 2011):

Columns and labels:
Assay type in all cases: cell-based
[1] = test system: voltage-gated Na+ channels in CAD cells
[2] = test system: voltage-gated Na+ channels in CAD cells; remark: listed apart in the source
[3] = test system: voltage-gated Na+ channels in CAD cells; conditions: 100 µM
[4] = test system: voltage-gated Na+ channels in CAD cells; conditions: for fraction of channels in a slow-inactivated state (1 minus the normalized INa): at −50 mV
[5] = test system: voltage-gated Na+ channels in CAD cells; experiment: Frequency; conditions: 100 µM; 30 pulses at 10 Hz, holding −80 mV
[6] = test system: voltage-gated Na+ channels in CAD cells; experiment: Rate of development of inhibition/slow inactivation of Na+ currents in CAD cells; conditions: 100 µM; vehicle 0.51 ± 0.08
[7] = 30 µM, UV irradiation, then washed 5 min

Row | Structure (SMILES) | block of Na+ current [1] | Na+ channels remaining in a slow-inactivated state [2, 7] | recovery of current amplitude at −10 mV compared with DMSO control or UV alone [2, 7] [%] | Na+ channels accumulated in the slow-inactivated state ([2]; 30 µM, photoactivated 365 nm 8 min then 312 nm 1 min) | Na+ channels in the slow-inactivated state ([2]; 30 µM, without light) [%] | changes in steady-state activation or fast inactivation ([2]; pre-drug, drug, UV and washout conditions, (R)-5 40 µM, (R)-6 40 µM, (R)-7 30 µM) | slope (k) of fast inactivation curve, shallower than DMSO-treated cells ([3]; p<0.05) | fraction of channels in a slow-inactivated state (1 minus the normalized INa) ([4]; 100 µM) | IC50 for slow inactivation, fold lower compared with (R)-1 ([4]; CAD cells, versus IC50 85 µM of (R)-1) [fold] | reduction of peak inward Na+ current ([1]; 100 µM, CAD cells held at −80 mV, versus 0.1% DMSO) [%] | recovery of current amplitude at −10 mV after wash compared with pre-drug values ([2]; 100 µM, 10 min, 5-min wash) [%] | effect on slow inactivation following the 5-min wash ([2]; 100 µM, 10 min at 37 °C, then 5-min wash, −50 mV) | peak current lower than control by the last pulse [5] | V1/2 of steady-state fast inactivation ([3]; DMSO control −67.5 ± 1.0 mV, not different (p > 0.05)) [mV] | fraction of current available at 8 s prepulse duration [6] | slow inactivation observed at potentials more depolarized than ([4]; 100 µM) [mV] | fraction of Na+ current available at −50 mV ([4]; 100 µM, 5 s conditioning prepulse) [fractional units] | maximal fraction of current unavailable by depolarization ([4]; 100 µM, 20 mV as printed, control 0.62 ± 0.03)
1 | NC1=N[C@H](O)[C@H]2[C@H]3O[C@]4(O)O[C@@H]([C@@H](O)[C@@]2(N1)[C@@H]4O)[C@]3(O)CO [tetrodotoxin] | almost all of the current was blocked | – | – | – | – | – | – | – | – | – | – | – | – | – | – | – | – | –
2 | COC[C@@H](NC(C)=O)C(=O)NCc1ccc(C2(C(F)(F)F)N=N2)cc1 [(R)-7] | – | about 10% | 87 | about 35% | 65 | no changes | about 55% | 0.66 ± 0.05 | 7.1 | – | – | – | – | – | – | – | – | –
3 | COC[C@@H](NC(C)=O)C(=O)NCc1ccccc1 [(R)-1, (R)-N-benzyl 2-acetamido-3-methoxypropionamide] | – | – | – | – | – | – | – | 0.65 ± 0.08 | – | 40 | 74 | completely reversed | ~ 10% | −69.5 ± 1.3 | 0.31 ± 0.01 | > −80 | 0.35 ± 0.01 | 0.26 ± 0.01
